Results: patent US20100190856A1, “Novel Polyhydroxylated Compounds as Fatty Acid Synthase (FASN) Inhibitors” (UNIVERSIDAD COMPLUTENSE DE MADRID, priority 2007, published 2010)
Read-outs that look alike come from different tables or passages of the source.

Tests used:
[1] = test system: SK-Br3 breast cancer cells; experiment: MTT cytotoxicity assay, SK-Br3 breast cancer cells; type: cell-based, human; details: for IC50: MTT, 48 h, read-out: IC50, growth inhibition, SK-Br3
Method: (§1) MCF-7 and MDA-MB-231 breast cancer cells were obtained from the American Type Culture Collection (ATCC) and were routinely grown in Dulbecco's modified Eagle's medium (DMEM, Gibco) containing 10% fetal bovine serum (FBS, Bio-Whittaker), 1% L-glutamine, 1% sodium pyruvate, 50 U/mL penicillin and 50 μg/mL streptomycin. SK-Br3 breast cancer cells were obtained from Eucellbank (Universidad de Barcelona, Spain) and were passaged in McCoy's 5 A medium containing 10% FBS, 1% L-glutamine, 1% sodium pyruvate, 50 U/mL penicillin and 50 μg/mL streptomycin. Non-malignant fibroblasts N-1 were obtained from Eucellbank (Universidad de Barcelona, Spain) and were passaged in DMEM medium containing 10% FBS, 1% L-glutamine, 1% sodium pyruvate, 50 U/mL penicillin and 50 μg/mL streptomycin. The cells remained free of Mycoplasma and were propagated in adherent culture according to established protocols. Cells were maintained at 37° C. in a humidified atmosphere of 95% air and 5% CO2.
(§2) Drug sensitivity was determined using a standard colorimetric MTT (3-4,5-dimethylthiazol-2-yl-2,5-diphenyltetrazolium bromide) assay. Briefly, cells were plated out at a density of 7×10^3 cells/100 μL/well in 96-well microtitre plates and allowed an overnight period for attachment. Then the medium was removed and fresh medium along with various concentrations of the tested compound were added to the cultures for a period of 48 h. Following the treatment, the cells were fed with drug-free medium (100 μL/well) and 10 μL of MTT solution (5 mg/mL; Sigma, St. Louis, Mo.), and the incubation was prolonged for 3 h at 37° C. After carefully removing the supernatants, the MTT-formazan crystals formed by metabolically viable cells were dissolved in dimethyl sulphoxide (100 μL/well) and the absorbance was measured at 570 nm in a multi-well plate reader (Model Anthos Labtec 2010 1.7 reader).

[2] = test system: MCF-7 breast cancer cells; experiment: MTT cytotoxicity assay, MCF-7 breast cancer cells; type: cell-based, human; details: Homo sapiens, MCF7, MCF-7 cells, 48 h, read-out: IC50, growth inhibition, MCF-7
Method: as §1, §2

| Compound | relative IC50 ratio of EGCG to compound [1] | IC50 ([1]; Homo sapiens, SK-BR-3, 48 h) [µM] | IC50 [1] [µM] | IC50 [2] [µM] |
| --- | --- | --- | --- | --- |
| O=C(Oc1cc(OC(=O)c2cc(O)c(O)c(O)c2)c2ccccc2c1)c1cc(O)c(O)c(O)c1 [f, 1,3-bis[(3,4,5-trihydroxybenzoyl)oxy]naphthalene] | 7.5 | 21.3 ± 6.7 | 20 | 46.3 ± 18 |
| O=C(Oc1ccc(OC(=O)c2cc(O)c(O)c(O)c2)c2ccccc12)c1cc(O)c(O)c(O)c1 [i, 1,4-bis[(3,4,5-trihydroxybenzoyl)oxy]naphthalene] | 5.4 | 28.7 ± 0.3 | 28 | 44.4 ± 16.3 |
